Laboratory results published in patent US12077797B2, “Oligopeptide with lipid-lowering activity, preparation method and application thereof” (Nanjing University of Finance and Economics, priority 2022, dated 2024).
Where a SMILES comes first, the peptide text is derived from it.

Test system: HepG2 cells
Assay: MTT assay, cell proliferation viability of normal HepG2 cells
Format: cell-based
Details: 256 μM, FIG. 5A
Procedure: i) MTT (also referred to as thiazole blue) assay is used to detect the effects of various components (LPH-I, LPH-II and LPH-III) on the cell proliferation viability of normal HepG2 cells: HepG2 cells in logarithmic growth period are taken and prepared into a cell suspension of 4×10^5 cells/mL with the high glucose DMEM medium containing 10% FBS. Sample wells are set in a 96-well plate, and 100 μL of cell suspension is added to each sample well, and the cells are cultured in a cell incubator for 24 hours to adhere to the wall. After removing the culture medium from the sample wells, the components LPH-I (>10 kDa), LPH-II (3-10 kDa) and LPH-III (<3 kDa) are respectively dissolved in the high glucose DMEM culture medium containing 10% FBS to prepare an oligopeptide culture medium with a concentration of 150 μg/mL, and then added to each sample well, with a volume of 100 μL per well. A blank well is set, no cells are present compared with the sample wells, and 100 μL PBS phosphate buffer (1×, pH 7.2) is used to replace the oligopeptide culture medium. A control well is set with cells compared with the sample wells, and 100 μL PBS phosphate buffer (1×, pH 7.2) is used to replace the oligopeptide culture medium. […] The absorbance is measured at 570 nanometers (nm) wavelength in a microplate reader. […]

## C[C@H](N)C(=O)N[C@@H](Cc1ccc(O)cc1)C(=O)N1CCC[C@H]1C(=O)N[C@@H](Cc1ccccc1)C(=O)O [AYPF] (H-AYPF-OH; N-terminus and C-terminus assumed)
  effect on the cell viability: a certain effect
